Laboratory results from patent US9624170B2, “4-(piperrazin-1-yl)-pyrrolidin-2-one compounds as monoacylglycerol lipase (MAGL) inhibitors” (TAKEDA PHARMACEUTICAL COMPANY LIMITED, priority 2013, dated 2017).

Biological target: T1, human MAGL (His-hMAGL) (Homo sapiens, UniProt Q99685)
T1 construct: made in house; host or cells: Escherichia coli BL21(DE3)
T1 sequence (Q99685 1-303): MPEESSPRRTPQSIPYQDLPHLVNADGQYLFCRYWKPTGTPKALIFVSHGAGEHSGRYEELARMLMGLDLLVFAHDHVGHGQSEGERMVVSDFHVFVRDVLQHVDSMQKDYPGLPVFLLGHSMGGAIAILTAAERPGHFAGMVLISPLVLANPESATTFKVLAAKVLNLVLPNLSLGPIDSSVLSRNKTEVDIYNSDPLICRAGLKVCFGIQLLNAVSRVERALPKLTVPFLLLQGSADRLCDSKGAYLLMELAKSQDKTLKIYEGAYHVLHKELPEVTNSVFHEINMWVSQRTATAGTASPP
Experiment: Measurement of MAGL inhibitory activity by mass spectrometry
Format: biochemical
Details: MAGL inhibitory rate, test compound 10 μM, His-hMAGL, substrate 2-arachidonylglycerol, RapidFire-mass spectrometry
In short: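 His-tagged human MAGL was reacted with 150 μM 2-arachidonylglycerol substrate (stock, added by 5 μL) for 10 min at room temperature, then stopped with formic acid. Arachidonic acid product was quantified by RapidFire–triple-quadrupole MS in negative SRM mode, corrected by arachidonic acid-d8, and converted to percent inhibition.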

O=C(c1nccs1)N1CCN(C2CC(=O)N(c3ccc(-c4cccnc4)cc3)C2)CC1 (centres unmarked) [Example 197, 1-(4-(pyridin-3-yl)phenyl)-4-(4-(1,3-thiazol-2-ylcarbonyl)piperazin-1-yl)pyrrolidin-2-one]
inhibition at 10 µM: 89%

O=C(c1nccs1)N1CCN(C2CC(=O)N(c3cccc(-c4cccnc4Cl)c3)C2)CC1 (centres unmarked) [Example 199, 1-(3-(2-chloropyridin-3-yl)phenyl)-4-(4-(1,3-thiazol-2-ylcarbonyl)piperazin-1-yl)pyrrolidin-2-one]
inhibition at 10 µM: 101%

O=C1Cc2ccc(-c3cccc(N4CC(N5CCN(C(=O)c6nccs6)CC5)CC4=O)c3)cc2N1 (centres unmarked) [Example 200, 6-(3-(2-oxo-4-(4-(1,3-thiazol-2-ylcarbonyl)piperazin-1-yl)pyrrolidin-1-yl)phenyl)-1,3-dihydro-2H-indol-2-one]
inhibition at 10 µM: 98%

O=C(c1nccs1)N1CCN(C2CC(=O)N(c3ccnc(-c4ccccc4)c3)C2)CC1 (centres unmarked) [Example 201, 1-(2-phenylpyridin-4-yl)-4-(4-(1,3-thiazol-2-ylcarbonyl)piperazin-1-yl)pyrrolidin-2-one]
inhibition at 10 µM: 84%

Cc1ccncc1-c1cccc(N2CC(N3CCN(C(=O)c4nccs4)CC3)CC2=O)c1 (centres unmarked) [Example 202, 1-(3-(4-methylpyridin-3-yl)phenyl)-4-(4-(1,3-thiazol-2-ylcarbonyl)piperazin-1-yl)pyrrolidin-2-one]
inhibition at 10 µM: 102%

Cc1cnccc1-c1cccc(N2CC(N3CCN(C(=O)c4nccs4)CC3)CC2=O)c1 (centres unmarked) [Example 203, 1-(3-(3-methylpyridin-4-yl)phenyl)-4-(4-(1,3-thiazol-2-ylcarbonyl)piperazin-1-yl)pyrrolidin-2-one]
inhibition at 10 µM: 99%

Cc1cc(-c2cccc(N3CC(N4CCN(C(=O)c5nccs5)CC4)CC3=O)c2)ccn1 (centres unmarked) [Example 204, 1-(3-(2-methylpyridin-4-yl)phenyl)-4-(4-(1,3-thiazol-2-ylcarbonyl)piperazin-1-yl)pyrrolidin-2-one]
inhibition at 10 µM: 101%

O=C(c1nccs1)N1CCN([C@@H]2CC(=O)N(c3ccc4c(cnn4-c4ccc(F)cc4)c3)C2)CC1 [Example 205, (4R)-1-(1-(4-fluorophenyl)-1H-indazol-5-yl)-4-(4-(1,3-thiazol-2-ylcarbonyl)piperazin-1-yl)pyrrolidin-2-one]
inhibition at 10 µM: 100%

Cc1cncc(-c2cccc(N3CC(N4CCN(C(=O)c5nccs5)CC4)CC3=O)c2)c1 (centres unmarked) [Example 206, 1-(3-(5-methylpyridin-3-yl)phenyl)-4-(4-(1,3-thiazol-2-ylcarbonyl)piperazin-1-yl)pyrrolidin-2-one]
inhibition at 10 µM: 98%

O=C(c1nccs1)N1CCN(C2CC(=O)N(c3ccc(-c4ccco4)cc3)C2)CC1 (centres unmarked) [Example 207, 1-(4-(2-furyl)phenyl)-4-(4-(1,3-thiazol-2-ylcarbonyl)piperazin-1-yl)pyrrolidin-2-one]
inhibition at 10 µM: 97%

Cc1cccc(-c2ccc(N3CC(N4CCN(C(=O)c5nccs5)CC4)CC3=O)cc2)c1 (centres unmarked) [Example 208]
inhibition at 10 µM: 101%

N#Cc1ccccc1-c1ccc(N2CC(N3CCN(C(=O)c4nccs4)CC3)CC2=O)cc1 (centres unmarked) [Example 209, 4′-(2-oxo-4-(4-(1,3-thiazol-2-ylcarbonyl)piperazin-1-yl)pyrrolidin-1-yl)biphenyl-2-carbonitrile]
inhibition at 10 µM: 96%

N#Cc1ccc(-c2ccc(N3CC(N4CCN(C(=O)c5nccs5)CC4)CC3=O)cc2)cc1 (centres unmarked) [Example 210, 4′-(2-oxo-4-(4-(1,3-thiazol-2-ylcarbonyl)piperazin-1-yl)pyrrolidin-1-yl)biphenyl-4-carbonitrile]
inhibition at 10 µM: 91%

O=C(c1nccs1)N1CCN(C2CC(=O)N(c3ccc(-c4cnn5ccccc45)cc3)C2)CC1 (centres unmarked) [Example 212, 1-(4-(pyrazolo[1,5-a]pyridin-3-yl)phenyl)-4-(4-(1,3-thiazol-2-ylcarbonyl)piperazin-1-yl)pyrrolidin-2-one]
inhibition at 10 µM: 100%

O=C(c1nccs1)N1CCN(C2CC(=O)N(c3ccc(-c4ccccc4)cc3)C2)CC1 (centres unmarked) [Example 213, 1-(biphenyl-4-yl)-4-(4-(1,3-thiazol-2-ylcarbonyl)piperazin-1-yl)pyrrolidin-2-one]
inhibition at 10 µM: 100%

NC(=O)Cc1cccc(-c2ccc(N3CC(N4CCN(C(=O)c5nccs5)CC4)CC3=O)cc2)c1 (centres unmarked) [Example 214, 2-(4′-(2-oxo-4-(4-(1,3-thiazol-2-ylcarbonyl)piperazin-1-yl)pyrrolidin-1-yl)biphenyl-3-yl)acetamide]
inhibition at 10 µM: 93%

O=C(c1nccs1)N1CCN(C2CC(=O)N(c3ccc(-c4ccccc4C(F)(F)F)cc3)C2)CC1 (centres unmarked) [Example 215, 4-(4-(1,3-thiazol-2-ylcarbonyl)piperazin-1-yl)-1-(2′-(trifluoromethyl)biphenyl-4-yl)pyrrolidin-2-one]
inhibition at 10 µM: 101%

CS(=O)(=O)Nc1cccc(-c2ccc(N3CC(N4CCN(C(=O)c5nccs5)CC4)CC3=O)cc2)c1 (centres unmarked) [Example 216, N-(4′-(2-oxo-4-(4-(1,3-thiazol-2-ylcarbonyl)piperazin-1-yl)pyrrolidin-1-yl)biphenyl-3-yl)methanesulfonamide]
inhibition at 10 µM: 97%

O=C(c1nccs1)N1CCN(C2CC(=O)N(c3ccc(-c4ccsc4)cc3)C2)CC1 (centres unmarked) [Example 217, 4-(4-(1,3-thiazol-2-ylcarbonyl)piperazin-1-yl)-1-(4-(3-thienyl)phenyl)pyrrolidin-2-one]
inhibition at 10 µM: 98%

O=C(c1nccs1)N1CCN(C2CC(=O)N(c3ccc(-c4cccs4)cc3)C2)CC1 (centres unmarked) [Example 218, 4-(4-(1,3-thiazol-2-ylcarbonyl)piperazin-1-yl)-1-(4-(2-thienyl)phenyl)pyrrolidin-2-one]
inhibition at 10 µM: 99%

Cc1ccc(-c2ccc(N3CC(N4CCN(C(=O)c5nccs5)CC4)CC3=O)cc2)cc1 (centres unmarked) [Example 219, 1-(4′-methylbiphenyl-4-yl)-4-(4-(1,3-thiazol-2-ylcarbonyl)piperazin-1-yl)pyrrolidin-2-one]
inhibition at 10 µM: 102%

Cc1ccccc1-c1cccc(N2CC(N3CCN(C(=O)c4cscn4)CC3)CC2=O)c1 (centres unmarked) [Example 220, 1-(2′-methylbiphenyl-3-yl)-4-(4-(1,3-thiazol-4-ylcarbonyl)piperazin-1-yl)pyrrolidin-2-one]
inhibition at 10 µM: 103%

Cc1ccccc1-c1cccc(N2CC(N3CCN(C(=O)c4ncco4)CC3)CC2=O)c1 (centres unmarked) [Example 221, 1-(2′-methylbiphenyl-3-yl)-4-(4-(1,3-oxazol-2-ylcarbonyl)piperazin-1-yl)pyrrolidin-2-one]
inhibition at 10 µM: 101%

O=C1Cc2cccc(-c3cccc(N4CC(N5CCN(C(=O)c6nccs6)CC5)CC4=O)c3)c2N1 (centres unmarked) [Example 222, 7-(3-(2-oxo-4-(4-(1,3-thiazol-2-ylcarbonyl)piperazin-1-yl)pyrrolidin-1-yl)phenyl)-1,3-dihydro-2H-indol-2-one]
inhibition at 10 µM: 98%

O=C(c1cscn1)N1CCN(C2CC(=O)N(c3cccc(-c4cccnc4Cl)c3)C2)CC1 (centres unmarked) [Example 223, 1-(3-(2-chloropyridin-3-yl)phenyl)-4-(4-(1,3-thiazol-4-ylcarbonyl)piperazin-1-yl)pyrrolidin-2-one]
inhibition at 10 µM: 101%

O=C(c1ncco1)N1CCN(C2CC(=O)N(c3cccc(-c4cccnc4Cl)c3)C2)CC1 (centres unmarked) [Example 224, 1-(3-(2-chloropyridin-3-yl)phenyl)-4-(4-(1,3-oxazol-2-ylcarbonyl)piperazin-1-yl)pyrrolidin-2-one]
inhibition at 10 µM: 100%
